Data published in the supplement of paper PMC10307832.

Experiments:
Assay in all cases: relative viability (nuclei count vs DMSO), 5 days (fraction); higher = more cells survive
NCI-H520 = system: NCI-H520
In short: (§1)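 For relative viability, nuclei counts in treated wells were divided by those in vehicle wells. Lung cancer cell lines had been pin-tool dosed in 1536-well plates the day after seeding and cultured for 5 days, then fixed and stained in one step (final 0.05% Triton X-100, 1% formaldehyde, 1 ug/ml Hoechst) and imaged at 4×. Doses were one drug alone or a fixed anchor-drug dose plus five library-drug doses (not always all listed) in √10 steps, and values are duplicate-plate medians.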

HCC-78 = system: HCC-78
In short: as §1

RERF-LC-KJ = system: RERF-LC-KJ
In short: as §1

HCC-827 = system: HCC-827
In short: as §1

NCI-H1666 = system: NCI-H1666
In short: as §1

NCI-H647 = system: NCI-H647
In short: as §1

NCI-H2087 = system: NCI-H2087
In short: as §1

COR-L 105 = system: COR-L 105
In short: as §1

201T = system: 201T
In short: as §1

NCI-H322M = system: NCI-H322M
In short: as §1

NCI-H1915 = system: NCI-H1915
In short: as §1

PC-14 = system: PC-14
In short: as §1

NCI-H661 = system: NCI-H661
In short: as §1

NCI-H23 = system: NCI-H23
In short: as §1

ChaGo-K-1 = system: ChaGo-K-1
In short: as §1

NCI-H2347 = system: NCI-H2347
In short: as §1

H3255 = system: H3255
In short: as §1

NCI-H2405 = system: NCI-H2405
In short: as §1

LCLC-97TM1 = system: LCLC-97TM1
In short: as §1

NCI-H650 = system: NCI-H650
In short: as §1

EPLC-272H = system: EPLC-272H
In short: as §1

NCI-H2126 = system: NCI-H2126
In short: as §1

LC-2-ad = system: LC-2-ad
In short: as §1

`NC(=O)Nc1cc(-c2cccc(F)c2)sc1C(=O)N[C@H]1CCCNC1` [AZD7762] + CS(=O)(=O)N1CCN(Cc2cc3nc(-c4cccc5[nH]ncc45)nc(N4CCOCC4)c3s2)CC1 [Pictilisib] (partner 1 µM) gave a relative viability (NCI-H520; first compound 0.01 µM) of 0.328, a relative viability (NCI-H520; first compound 0.03162 µM) of 0.28 and a relative viability (NCI-H520; first compound 0.1 µM) of 0.253. It also gave a relative viability (NCI-H520; first compound 0.3162 µM) of 0.216, a relative viability (NCI-H520; first compound 1 µM) of 0.219 and a relative viability (HCC-78; first compound 0.01 µM) of 0.241. The relative viability (HCC-78; first compound 0.03162 µM) was 0.228, the relative viability (HCC-78; first compound 0.1 µM) was 0.205 and the relative viability (HCC-78; first compound 0.3162 µM) was 0.213. It also gave a relative viability (HCC-78; first compound 1 µM) of 0.18, a relative viability (RERF-LC-KJ; first compound 0.01 µM) of 0.521 and a relative viability (RERF-LC-KJ; first compound 0.03162 µM) of 0.616. For the same molecule, the relative viability (RERF-LC-KJ; first compound 0.1 µM) was 0.521, the relative viability (RERF-LC-KJ; first compound 0.3162 µM) was 0.6 and the relative viability (RERF-LC-KJ; first compound 1 µM) was 0.431. For the same molecule, the relative viability (HCC-827; first compound 0.01 µM) was 1.36, the relative viability (HCC-827; first compound 0.03162 µM) was 0.962 and the relative viability (HCC-827; first compound 0.1 µM) was 1.17. It also gave a relative viability (HCC-827; first compound 0.3162 µM) of 1.21, a relative viability (HCC-827; first compound 1 µM) of 0.682 and a relative viability (NCI-H1666; first compound 0.01 µM) of 0.603. For the same molecule, the relative viability (NCI-H1666; first compound 0.03162 µM) was 0.407, the relative viability (NCI-H1666; first compound 0.1 µM) was 0.55 and the relative viability (NCI-H1666; first compound 0.3162 µM) was 0.589. It also gave a relative viability (NCI-H1666; first compound 1 µM) of 0.411, a relative viability (NCI-H647; first compound 0.03162 µM) of 0.559 and a relative viability (NCI-H647; first compound 0.1 µM) of 0.427. It also gave a relative viability (NCI-H647; first compound 0.3162 µM) of 0.375, a relative viability (NCI-H647; first compound 1 µM) of 0.16 and a relative viability (NCI-H2087; first compound 0.01 µM) of 0.982. For the same molecule, the relative viability (NCI-H2087; first compound 0.03162 µM) was 0.902, the relative viability (NCI-H2087; first compound 0.1 µM) was 1.23 and the relative viability (NCI-H2087; first compound 0.3162 µM) was 1.31. The relative viability (NCI-H2087; first compound 1 µM) was 1.09, the relative viability (COR-L 105; first compound 0.01 µM) was 0.486 and the relative viability (COR-L 105; first compound 0.03162 µM) was 0.365. For the same molecule, the relative viability (COR-L 105; first compound 0.1 µM) was 0.31, the relative viability (COR-L 105; first compound 0.3162 µM) was 0.353 and the relative viability (COR-L 105; first compound 1 µM) was 0.242. The relative viability (201T; first compound 0.01 µM) was 0.707, the relative viability (201T; first compound 0.03162 µM) was 0.689 and the relative viability (201T; first compound 0.1 µM) was 0.668. For the same molecule, the relative viability (201T; first compound 0.3162 µM) was 0.65, the relative viability (201T; first compound 1 µM) was 0.738 and the relative viability (NCI-H322M; first compound 0.01 µM) was 0.484. It also gave a relative viability (NCI-H322M; first compound 0.03162 µM) of 0.552, a relative viability (NCI-H322M; first compound 0.1 µM) of 0.502 and a relative viability (NCI-H322M; first compound 0.3162 µM) of 0.5. It also gave a relative viability (NCI-H322M; first compound 1 µM) of 0.426, a relative viability (NCI-H1915; first compound 0.01 µM) of 0.931 and a relative viability (NCI-H1915; first compound 0.03162 µM) of 0.96. The relative viability (NCI-H1915; first compound 0.1 µM) was 1.02, the relative viability (NCI-H1915; first compound 0.3162 µM) was 0.918 and the relative viability (NCI-H1915; first compound 1 µM) was 0.924. The relative viability (PC-14; first compound 0.01 µM) was 0.763, the relative viability (PC-14; first compound 0.03162 µM) was 0.795 and the relative viability (PC-14; first compound 0.1 µM) was 0.67. The relative viability (PC-14; first compound 0.3162 µM) was 0.474, the relative viability (PC-14; first compound 1 µM) was 0.309 and the relative viability (NCI-H661; first compound 0.01 µM) was 0.41. The relative viability (NCI-H661; first compound 0.03162 µM) was 0.406, the relative viability (NCI-H661; first compound 0.1 µM) was 0.356 and the relative viability (NCI-H661; first compound 0.3162 µM) was 0.316. It also gave a relative viability (NCI-H661; first compound 1 µM) of 0.312, a relative viability (NCI-H23; first compound 0.01 µM) of 0.56 and a relative viability (NCI-H23; first compound 0.03162 µM) of 0.533. For the same molecule, the relative viability (NCI-H23; first compound 0.1 µM) was 0.446, the relative viability (NCI-H23; first compound 0.3162 µM) was 0.358 and the relative viability (NCI-H23; first compound 1 µM) was 0.228. It also gave a relative viability (ChaGo-K-1; first compound 0.01 µM) of 0.656, a relative viability (ChaGo-K-1; first compound 0.03162 µM) of 0.815 and a relative viability (ChaGo-K-1; first compound 0.1 µM) of 0.846. The relative viability (ChaGo-K-1; first compound 0.3162 µM) was 0.675, the relative viability (ChaGo-K-1; first compound 1 µM) was 0.562 and the relative viability (NCI-H2347; first compound 0.01 µM) was 0.598. For the same molecule, the relative viability (NCI-H2347; first compound 0.03162 µM) was 0.721, the relative viability (NCI-H2347; first compound 0.1 µM) was 0.623 and the relative viability (NCI-H2347; first compound 0.3162 µM) was 0.788. The relative viability (NCI-H2347; first compound 1 µM) was 0.292, the relative viability (H3255; first compound 0.01 µM) was 0.527 and the relative viability (H3255; first compound 0.03162 µM) was 0.448. It also gave a relative viability (H3255; first compound 0.1 µM) of 0.519, a relative viability (H3255; first compound 0.3162 µM) of 0.514 and a relative viability (H3255; first compound 1 µM) of 0.418. For the same molecule, the relative viability (NCI-H2405; first compound 0.01 µM) was 0.457, the relative viability (NCI-H2405; first compound 0.03162 µM) was 0.559 and the relative viability (NCI-H2405; first compound 0.1 µM) was 0.382. The relative viability (NCI-H2405; first compound 0.3162 µM) was 0.291, the relative viability (NCI-H2405; first compound 1 µM) was 0.22 and the relative viability (LCLC-97TM1; first compound 0.01 µM) was 0.201. For the same molecule, the relative viability (LCLC-97TM1; first compound 0.03162 µM) was 0.201, the relative viability (LCLC-97TM1; first compound 0.1 µM) was 0.277 and the relative viability (LCLC-97TM1; first compound 0.3162 µM) was 0.216. It also gave a relative viability (LCLC-97TM1; first compound 1 µM) of 0.152, a relative viability (NCI-H650; first compound 0.01 µM) of 0.906 and a relative viability (NCI-H650; first compound 0.03162 µM) of 0.854. It also gave a relative viability (NCI-H650; first compound 0.1 µM) of 0.855, a relative viability (NCI-H650; first compound 0.3162 µM) of 1 and a relative viability (NCI-H650; first compound 1 µM) of 0.839. For the same molecule, the relative viability (EPLC-272H; first compound 0.01 µM) was 0.309, the relative viability (EPLC-272H; first compound 0.03162 µM) was 0.377 and the relative viability (EPLC-272H; first compound 0.1 µM) was 0.291. It also gave a relative viability (EPLC-272H; first compound 0.3162 µM) of 0.316, a relative viability (EPLC-272H; first compound 1 µM) of 0.247 and a relative viability (NCI-H2126; first compound 0.01 µM) of 0.491. The relative viability (NCI-H2126; first compound 0.03162 µM) was 0.482, the relative viability (NCI-H2126; first compound 0.1 µM) was 0.552 and the relative viability (NCI-H2126; first compound 0.3162 µM) was 0.518. It also gave a relative viability (NCI-H2126; first compound 1 µM) of 0.612, a relative viability (LC-2-ad; first compound 0.01 µM) of 0.438 and a relative viability (LC-2-ad; first compound 0.03162 µM) of 0.39. The relative viability (LC-2-ad; first compound 0.1 µM) was 0.321, the relative viability (LC-2-ad; first compound 0.3162 µM) was 0.308 and the relative viability (LC-2-ad; first compound 1 µM) was 0.196.
